# Like-named read-outs stand apart in the source and are kept apart here.
# Legend:
# [1] = tested on: hepatocytes from male rats (Sprague Dawley); test: In vitro metabolism study in rat hepatocytes in suspension, GC-MS; details: for Benzoic acid derivative concentration / Residual conc.: male, Sprague-Dawley, rat, 4 h, 100 μM
# Description: In order to study in vitro metabolism in rat hepatocytes, Lilial™ and compounds of the present invention may be incubated in the presence of rat hepatocytes in suspension. Reduction in the concentration of Lilial™ and the compounds of the present invention and formation of any of the corresponding benzoic acid derivatives may be analysed by GC-MS.
# Cryopreserved hepatocytes from male rats (Sprague Dawley; Lifetechnologies) were defrozen, washed in Cyropreserved Hepatocytes Recovery Medium (CHRM; Lifetechnologies) and suspended in Williams E Medium (WEM; Lifetechnologies). Lilial™, or the compounds of the present invention (final concentration: 100 μM) were added to the cells (1×10^6 viable cells/ml) and suspensions were incubated up to 4 hours at 37° C. on a shaker in duplicate. Metabolism of testosterone was monitored as positive control. Decrease of the test compounds and formation of the corresponding benzoic acid derivative was determined by GC-MS analysis of methyl esters formed after derivatisation with trimethylsilyl diazomethane (Sigma-Aldrich) in methanol. The test compounds react with diazomethane yielding a methyl ketone which was used for the quantification of Lilial™ and the compound of formula (I). Metabolism was stopped with ice cold 1 M HCl, samples were extracted with tert-butyl methyl ether (MTBE) and analysed by GC-MS. Incubations containing testosterone as control were also stopped with ice cold 1 M HCl, centrifuged to separate the cells, filtrated and the decrease of testosterone analysed by LC-MS. To quantify decrease of the test substances and formation of benzoic acid metabolites, calibration curves of reference materials Lilial™ and the compounds of the present invention, tert-butyl benzoic acid (Fluka) was prepared in hepatocyte incubation medium and analysed like the hepatocyte samples.
# [2] = Formation of the corresponding esters with Coenzym A; format: in vitro ADME; details: further experiment
# mice = details: cited from earlier work
# guinea-pigs = details: cited from earlier work
# primates = details: cited from earlier work
# fatty acid synthesis = details: in vitro; McCune et al 1982; cited from earlier work
# male rats = details: Hunter et al. 1965, Cagen et al. 1989; cited from earlier work
# glucose synthesis = details: in vitro; McCune et al 1982; cited from earlier work
smiles,measurement,setting,value
CC(C)c1ccc(CCCC=O)cc1,Benzoic acid derivative concentration,[1],1.4 µM
same,Residual conc.,[1],0 µM
CC(C)(C)c1ccc(CCCC=O)cc1,Benzoic acid derivative concentration,[1],1.3 µM
same,Residual conc.,[1],0.7 µM
CC(C)Cc1ccc(CCCC=O)cc1,Benzoic acid derivative concentration,[1],0.5 µM
same,Residual conc.,[1],0.2 µM
"Cc1cc(CC(C)C)ccc1CCCC=O [Example 3, 4-(4-Isobutyl-2-methylphenyl)butanal]",Formation of the corresponding esters with Coenzym A,[2],does not provide the formation of the corresponding esters with Coenzym A
"CC(C=O)Cc1ccc(C(C)(C)C)cc1 (stereo not shown) [Lilial™, 3-(4-tert-butylphenyl)-2-methylpropanal]",Effects in studies,mice,No effects
same,Effects in studies,guinea-pigs,No effects
same,Effects in studies,primates,No effects
same,Decrease of the test compound (in words),[1],metabolised rapidly
same,Residual conc.,[1],0 µM
"CC(C)(C)c1ccc(C(=O)O)cc1 [tert-Butyl benzoic acid, tert-butyl benzoic acid]",Inhibition of fatty acid synthesis,fatty acid synthesis,inhibit
same,Testicular effects,male rats,testicular effects
same,Inhibition of glucose synthesis,glucose synthesis,inhibit
C[C@]12CC[C@H]3[C@@H](CCC4=CC(=O)CC[C@@]43C)[C@@H]1CC[C@@H]2O [testosterone],Decrease of the test compound (in words),"[1]; rat hepatocytes, up to 4 hours at 37° C.",rapid decrease

# Reference: patent US20180230399A1, “ORGANIC COMPOUNDS” (GIVAUDAN SA, priority 2014, published 2018)
